Measurements taken from patent publication US11497761B2, “Compositions for the treatment of metastatic cancer” (priority 2019, dated 2022).

Key:
[1] = tested on: iCTCs from pancreatic cancer patients; assay: iCTC drug response (CDR) testing ex vivo, Project 1 Study-Pancreatic Cancer; type: cell-based, human; details: for number of live iCTCs remaining after treatment: 72 hours
Procedure: (§1) Materials for Project 1 Study-Pancreatic Cancer • Blood collection tubes: BD Vacutainer® 10 mL sodium heparin tube (BD catalog #367874)). • Vita-Assay™ AN6W plate. • Blood: pancreatic cancer, up to 40-mL blood collected from patients and provided by Conversant Bio. • Stock solution and dilutions • Monolaurin 4.78 mM with 0.75% PS-80 (Stock Solution C), 13.1 mg monolaurin in 0.25 mL PS-80 and 0.75 mL water and 0.1 mL of this solution was diluted with 0.9 mL of RPMI. Stocks are stable for 2 weeks at 4 degrees C. Monolaurin used is an equal mixture of 1-, 2-, and 3-isomers of monolaurin. • Monolaurin dilution: add 209.2 uL, 627.6 uL, and 1.2552 mL of monolaurin in 0.75% PS-80 (Stock solution C), and dilute to 10 mL of media to achieve final concentrations of 100 uM, 200 uM, 300 uM as indicated.
With respect to FIG. 1, a depiction of a generalized experimental scheme for testing efficacy of a composition in accordance with an exemplary embodiment of the present invention against iCTC from the blood of pancreatic cancer patients is shown. Invasive circulating tumor cells (iCTCs) were obtained from venous blood of the individual with advanced pancreatic cancer, cultured and exposed to a specific drug or battery of drugs at 1×, 2×, and 3× concentrations in vitro for 3 days. Drug responsiveness was measured by automatic flow cytometry using the reduction of live iCTCs in the treated samples from the number of live iCTCs in the untreated controls. The greater the reduction of iCTCs of a given drug at a given dose indicates greater responsiveness to that dose of the drug. Four AN6W plates were used for each sample. Control and drug at each dose in triplicate were incubated for 72 hours. The iCTCs were measured by flow cytometry and viewed by microscopy as described. The complete culture medium contains 10% fetal bovine serum.
The complete experimental procedure for Project 1 Study-Pancreatic Cancer, with reference to FIG. 1, is as follows:
1. Blood collection: up to 40-mL of blood was collected in several sodium heparin tubes from each patient.
2. Plasma collection: The patient sample tubes were pooled into a clean 50-mL conical tube and spun at 1,500 rpm for 8 mins at room temperature to separate plasma from blood cells. 3-4 mL of plasma were then collected into a clean 4.5-mL cell-frozen vial (up to 4 vials per patient), a labeled attached and the plasma stored at −80° C. freezer for use. 3. Calculated 50-mL tubes required for lysis of red blood cells: original blood volume. i.e., 36-mL,/2-mL=18. 4. Aliquotted 1/18 the remaining cell fraction into 18 new 50-mL tubes. 5. Red cell lysis: Added 48-mL of 1× red cell lysis buffer into each 50-mL tube to lyse red cells. Tubes placed on a roller mixer at 20-25° C. for 5 min. Cells spun down using low speed centrifugation (1,000 rpm). 6. iCTCs were captured using AN6W plate with or without drug treatment. 7. Drug treatment: Add 1-mL of CTC Capture Medium (standard culture medium containing 10% serum) with or without drugs (3× strength) to each 2-mL of the cell suspension in one well of the AN6W plate. 8. Cell culture: Culture cells in a 5% CO2 incubator at 37° C. for overnight, 72 hours, and 7 days. 9. CAM-enzyme elution of CAM-captured cells: Wells will be washed twice using 2-mL of 1×PBS. Add 0.8-mL of the activated CAM enzyme working solution into the well, and place at 37° C. for 15 min. Transfer cell suspension into a 15-mL conical centrifuge tube. Wash well by pipetting 2-mL of 1×PBS into the well and collect/transfer wash solution into the pool cell suspension. CAM-captured tumor cells will be collected using low speed centrifugation (1,000 rpm) of the conical tube. 10. Preparation of the cells for flow cytometry: Fix the cells by using 1×BD cell fixing buffer and keep at room temperature for 5 min. Add 3-mL of 1×PBS (containing 0.2% BSA buffer), spin down cells and remove the supernatant. 11. […]

[2] = Stability of monolaurin stock solution; type: physicochemical; details: 4.78 mM with 0.75% PS-80 (Stock Solution C), 4 degrees C
Procedure: as §1
Materials for Project 1 Study-Prostate Cancer • Blood collection tubes: BD Vacutainer® 10 mL sodium heparin tube (BD catalog #367874)). • Vita-Assay™ AN6W plate. • Blood: prostate cancer, up to 40-mL blood was collected from patients and provided by Conversant bio. • Stock Solution and Dilutions • Monolaurin, 4.78 mM with 0.75% PS-80 (Stock Solution C), 13.1 mg monolaurin in 0.25 mL PS-80 and 0.75 mL water and 0.1 mL of this solution was diluted with 0.9 mL of RPMI. Stock solutions were stable for 2 weeks at 4 degrees C. […]

[3] = tested on: primary human T-cell signaling; details: in vitro, cited from earlier work
[4] = tested on: Ehrlich ascites tumor cells; details: in vitro, Kato et al. 1971; cited from earlier work

CCCCCCCCCCCC(=O)OCC(O)CO (stereo not drawn) [Monolaurin, glycerol monolaurate]
50: number of live iCTCs remaining after treatment ([1]; patient RP01 (Folfirinox), iCTC control 550, 100 uM monolaurin)
only weak activity: anticancer activity [4]
36 to 73 µM: concentration interfering with activated T cell adhesion and actin organization (equivalent) ([3]; formulated in 95% ethanol) | concentrations inhibiting primary human T-cell signaling [3]
0: number of live iCTCs remaining after treatment ([1]; patient RP01 (Folfirinox), iCTC control 550, 200 uM monolaurin) | number of live iCTCs remaining after treatment ([1]; patient RP01 (Folfirinox), iCTC control 550, 300 uM monolaurin) | number of live iCTCs remaining after treatment ([1]; patient RP03 (Folfirinox), iCTC control 23, 200 uM monolaurin) | number of live iCTCs remaining after treatment ([1]; patient RP03 (Folfirinox), iCTC control 23, 300 uM monolaurin) | number of live iCTCs remaining after treatment ([1]; patient RP04 (Folfirinox), iCTC control 30, 100 uM monolaurin) | number of live iCTCs remaining after treatment ([1]; patient RP04 (Folfirinox), iCTC control 30, 200 uM monolaurin) | number of live iCTCs remaining after treatment ([1]; patient RP04 (Folfirinox), iCTC control 30, 300 uM monolaurin) | number of live iCTCs remaining after treatment ([1]; patient RP10 (Folfirinox), iCTC control 100, 200 uM monolaurin) | number of live iCTCs remaining after treatment ([1]; patient RP10 (Folfirinox), iCTC control 100, 300 uM monolaurin) | number of live iCTCs remaining after treatment ([1]; patient RP12 (Folfirinox), iCTC control 30, 200 uM monolaurin) | number of live iCTCs remaining after treatment ([1]; patient RP12 (Folfirinox), iCTC control 30, 300 uM monolaurin) | number of live iCTCs remaining after treatment ([1]; patient RP16 (Folfirinox), iCTC control 30, 100 uM monolaurin) | number of live iCTCs remaining after treatment ([1]; patient RP16 (Folfirinox), iCTC control 30, 200 uM monolaurin) | number of live iCTCs remaining after treatment ([1]; patient RP16 (Folfirinox), iCTC control 30, 300 uM monolaurin) | number of live iCTCs remaining after treatment ([1]; patient RP17 (Gemzar), iCTC control 50, 100 uM monolaurin) | number of live iCTCs remaining after treatment ([1]; patient RP17 (Gemzar), iCTC control 50, 200 uM monolaurin) | number of live iCTCs remaining after treatment ([1]; patient RP17 (Gemzar), iCTC control 50, 300 uM monolaurin) | number of live iCTCs remaining after treatment ([1]; patient RP18 (Gemzar/Abraxane), iCTC control 175, 100 uM monolaurin) | number of live iCTCs remaining after treatment ([1]; patient RP18 (Gemzar/Abraxane), iCTC control 175, 200 uM monolaurin) | number of live iCTCs remaining after treatment ([1]; patient RP18 (Gemzar/Abraxane), iCTC control 175, 300 uM monolaurin) | number of live iCTCs remaining after treatment ([1]; patient RP22 (Keytruda), iCTC control 45, 100 uM monolaurin) | number of live iCTCs remaining after treatment ([1]; patient RP22 (Keytruda), iCTC control 45, 200 uM monolaurin) | number of live iCTCs remaining after treatment ([1]; patient RP22 (Keytruda), iCTC control 45, 300 uM monolaurin)
2 weeks: stock solution stable for [2]
10 to 20 µg/mL: concentration interfering with activated T cell adhesion and actin organization ([3]; formulated in 95% ethanol)
15: number of live iCTCs remaining after treatment ([1]; patient RP′14 (Folfirinox), iCTC control 40, 200 uM monolaurin)
high kill rates: kill rates of iCTCs (summary) ([1]; iCTCs from pancreatic cancer patients)
10: number of live iCTCs remaining after treatment ([1]; patient RP03 (Folfirinox), iCTC control 23, 100 uM monolaurin) | number of live iCTCs remaining after treatment ([1]; patient RP10 (Folfirinox), iCTC control 100, 100 uM monolaurin) | number of live iCTCs remaining after treatment ([1]; patient RP11 (Folfirinox), iCTC control 40, 100 uM monolaurin) | number of live iCTCs remaining after treatment ([1]; patient RP11 (Folfirinox), iCTC control 40, 200 uM monolaurin) | number of live iCTCs remaining after treatment ([1]; patient RP11 (Folfirinox), iCTC control 40, 300 uM monolaurin) | number of live iCTCs remaining after treatment ([1]; patient RP′14 (Folfirinox), iCTC control 40, 300 uM monolaurin)
20: number of live iCTCs remaining after treatment ([1]; patient RP12 (Folfirinox), iCTC control 30, 100 uM monolaurin) | number of live iCTCs remaining after treatment ([1]; patient RP′14 (Folfirinox), iCTC control 40, 100 uM monolaurin)
